In PMC3365106, “Expression of Transient Receptor Potential Ankyrin 1 (TRPA1) and Its Role in Insulin Release from Rat Pancreatic Beta Cells” (PLoS ONE, 2012):

Target: transient receptor potential ankyrin 1 (TRPA1) (Rattus norvegicus, UniProt Q6RI86)
Experiment: whole-cell patch clamp in primary rat beta cells (MG in pipette); also currents in TRPA1-transfected HEK293T cells and siRNA-sensitive Ca2+ influx
Type: cell-based

Chain of transient receptor potential ankyrin 1 (TRPA1) (Q6RI86 whole entry): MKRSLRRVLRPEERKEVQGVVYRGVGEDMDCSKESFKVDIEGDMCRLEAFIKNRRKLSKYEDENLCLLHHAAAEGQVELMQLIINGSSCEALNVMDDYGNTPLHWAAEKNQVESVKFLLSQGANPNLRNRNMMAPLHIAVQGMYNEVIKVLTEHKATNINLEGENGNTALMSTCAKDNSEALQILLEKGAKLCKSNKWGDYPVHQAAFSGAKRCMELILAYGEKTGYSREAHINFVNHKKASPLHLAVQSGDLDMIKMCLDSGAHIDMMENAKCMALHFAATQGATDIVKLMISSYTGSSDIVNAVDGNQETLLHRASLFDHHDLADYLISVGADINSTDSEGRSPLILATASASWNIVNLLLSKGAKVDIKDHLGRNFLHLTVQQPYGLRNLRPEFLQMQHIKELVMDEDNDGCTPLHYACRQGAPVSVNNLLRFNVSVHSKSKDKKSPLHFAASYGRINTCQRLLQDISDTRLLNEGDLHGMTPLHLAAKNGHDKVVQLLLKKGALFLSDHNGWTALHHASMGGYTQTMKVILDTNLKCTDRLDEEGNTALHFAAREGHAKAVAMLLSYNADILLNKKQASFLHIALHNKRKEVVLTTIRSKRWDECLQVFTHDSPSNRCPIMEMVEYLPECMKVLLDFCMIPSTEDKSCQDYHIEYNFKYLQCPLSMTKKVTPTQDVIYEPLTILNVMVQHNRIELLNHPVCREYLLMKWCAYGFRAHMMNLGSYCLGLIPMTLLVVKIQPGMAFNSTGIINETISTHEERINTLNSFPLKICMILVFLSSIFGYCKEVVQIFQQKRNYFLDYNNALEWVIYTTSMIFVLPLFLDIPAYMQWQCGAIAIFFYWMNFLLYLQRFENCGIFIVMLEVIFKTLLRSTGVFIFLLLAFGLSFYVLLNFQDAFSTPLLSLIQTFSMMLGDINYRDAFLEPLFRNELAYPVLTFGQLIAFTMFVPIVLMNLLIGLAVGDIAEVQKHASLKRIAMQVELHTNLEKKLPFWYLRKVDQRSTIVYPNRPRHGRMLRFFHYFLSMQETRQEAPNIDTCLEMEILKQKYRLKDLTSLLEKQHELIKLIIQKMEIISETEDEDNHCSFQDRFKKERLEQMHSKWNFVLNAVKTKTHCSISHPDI

CC(=O)C=O [MG, methylglyoxal]
EC50: 590 nM
